Measured values reported in patent publication US10322112B2, “Compound combinations for attenuation of bacterial virulence” (priority 2016, dated 2019).
Entries after “also recorded” stand apart in the source; their conditions may differ.

What was measured:
[1] = test system: P. aeruginosa (PAO1); assay: Pyocyanin assay; format: cell-based, Pseudomonas aeruginosa; settings: for pyocyanin production, single compound screens: MOPS Glutamate and Glucose media, complete or iron/phosphate depleted, 17 h, 100 μM (compounds 1, 2, 3), 25 μM (compound 4), relative to DMSO
Description: A. Pyocyanin Assay Protocol. The amount of pyocyanin in P. aeruginosa culture supernatants was measured following a reported protocol (O'Loughlin et al., 2013) with modifications. A 10 mL overnight culture of P. aeruginosa PAO1 was grown for 16 h. DMSO stock solutions of test compounds (20 mM) were prepared, and 10 μL or 5 μL aliquots were added to sterile 15 mL borosilicate glass test tubes. An inoculating culture was prepared by diluting the overnight culture 1:100 into freshly prepared assay medium (see above), and 2 mL aliquots of this subculture were added to each test tube (0.5% DMSO, final). The cultures were grown for 17 h, and the final cell density measured by reading OD600. Relative pyocyanin levels were measured by first pelleting 1.5 mL of well-mixed culture at 4,000 g for 10 min, transferring 200 μL of the resulting supernatant to a clear, plastic 96-well microtiter plate, and reading absorbance at 695 nm. Media background absorbance (measured from a “no bacteria” control) was subtracted, the resulting values growth normalized by dividing by the final OD600378, and the data plotted relative to a DMSO-treated positive control. B. Rhamnolipid Assay Protocol. Rhamnolipid was quantified following a reported protocol (Koch et al., 1991) with modifications. Assay cultures were prepared and grown in an identical manner to the pyocyanin assay above. Aliquots of the final culture supernatant (1 mL) were transferred to 1 dram glass vials and extracted twice with 1 mL diethyl ether. The pooled organic fractions were evaporated to dryness, and the resulting residue reconstituted in 200 μL de-ionized water. In a 1.7 mL plastic centrifuge tube, 50 μL of this extract was diluted into 450 μL of a solution of 0.19% (w/v) orcinol in 50% (v/v) concentrated H2SO4 (or 20 μL extract into 480 μL orcinol solution for cultures grown in MOPS Glucose medium). The tubes were vortexed thoroughly to mix and incubated in an 80° C. heating block for 30 min. After briefly cooling to room temperature, 200 μL of the resulting yellow to yellow-orange solution was transferred to a clear 96-well microtiter plate, and the absorbance at 421 nm measured. Media background absorbance (measured from a “no bacteria” control) was subtracted, the resulting values growth normalized by dividing by the final OD600, and the data plotted relative to a DMSO-treated positive control. C. Elastase B Assay Protocol. The amount of elastase B in P. aeruginosa culture supernatants was measured following a reported protocol (Geske et al., 2007) with modifications. Assay cultures were prepared and grown in an identical manner to the pyocyanin assay above. Aliquots of the final culture supernatant (50 μL) were added to the wells of a clear, plastic 96-well plate. To each well, 150 μL of 0.5% (w/v) elastin-congo red conjugate (Elastin Products Co.) in Tris buffer (10 mM Tris-HCl, 1 mM CaCl2, pH 7.2) was added. The plate was sealed with a polypropylene storage mat (Costar 3080) and incubated in a 37° C. shaking incubator (200 rpm) attached to a Labquake rotator for 12 h (for experiments in SCFM2) or 24 h (for experiments in MOPS medium). To quantify elastase B activity, the undigested elastin was pelleted by centrifugation of the assay plate at 1,500 g for 10 min, after which 100 μL of the supernatant was transferred to a new, clear 96-well plate, and the absorbance at 490 nm measured. Media background absorbance (measured from a “no bacteria” control) was subtracted, the resulting values growth normalized by dividing by the final OD600, and the data plotted relative to a DMSO-treated positive control.

[2] = test system: P. aeruginosa (PAO1); assay: P. aeruginosa growth curves; format: cell-based, Pseudomonas aeruginosa; settings: MOPS Glutamate, 100 microM compound 1
Description: FIGS. 2A-2D are wild-type P. aeruginosa growth curves in the presence of test compounds in various media. Related to FIGS. 3, 6A and 6B, 7A and 7B, and 12. (FIG. 2A) Growth curves in complete MOPS/Glutamate. (FIG. 2B) Growth curves in complete MOPS/Glucose. […] (FIG. 2D) Growth curves in SCFM2. P. aeruginosa (PAO1) was grown in a manner identical to the pyocyanin assay (see Experimental Procedures). At each time point, growth was measured by either reading OD600 (for MOPS media) or by serially diluting culture aliquots, plating on LB agar, and counting CFUs after overnight incubation at 37° C. (for SCFM2). Compound concentrations are 100 microM for compounds 1, 2, and 3 and 25 microM for compound 4 in all experiments unless noted otherwise. Error bars represent the standard error of at least two biological replicates (n≥2). BHL=N-butyryl L-homoserine lactone (Cayman Chemicals).
B. Bacterial Strains and Growth Conditions. Protocols for construction of genetic knockout strains are described below in Example 2. All reagents for bacterial culture were purchased from Sigma-Aldrich unless indicated otherwise. Bacteria were routinely cultured in Luria-Bertani broth (LB) at 37° C. with shaking at 200 rpm. Freezer stocks of bacterial strains were maintained at −80° C. in 1:1 LB:glycerol. Bacterial growth was routinely assessed by measuring the culture cell density according to absorbance at 600 nm (OD600341). Cell growth in simulated cystic fibrosis sputum medium (SCFM2) was determined by serially diluting assay cultures, plating on LB agar, and counting the number of colony forming units (CFU) appearing after overnight incubation at 37° C.

[3] = test system: P. aeruginosa (PAO1); assay: Elastase B assay; format: cell-based, Pseudomonas aeruginosa; settings: 17 h; for elastase B production, single compound screens: MOPS Glutamate and Glucose media, complete or iron/phosphate depleted, 100 μM (compounds 1, 2, 3), relative to DMSO
Description: (§1) A. Pyocyanin Assay Protocol. The amount of pyocyanin in P. aeruginosa culture supernatants was measured following a reported protocol (O'Loughlin et al., 2013) with modifications. A 10 mL overnight culture of P. aeruginosa PAO1 was grown for 16 h. DMSO stock solutions of test compounds (20 mM) were prepared, and 10 μL or 5 μL aliquots were added to sterile 15 mL borosilicate glass test tubes. An inoculating culture was prepared by diluting the overnight culture 1:100 into freshly prepared assay medium (see above), and 2 mL aliquots of this subculture were added to each test tube (0.5% DMSO, final). The cultures were grown for 17 h, and the final cell density measured by reading OD600. Relative pyocyanin levels were measured by first pelleting 1.5 mL of well-mixed culture at 4,000 g for 10 min, transferring 200 μL of the resulting supernatant to a clear, plastic 96-well microtiter plate, and reading absorbance at 695 nm. Media background absorbance (measured from a “no bacteria” control) was subtracted, the resulting values growth normalized by dividing by the final OD600378, and the data plotted relative to a DMSO-treated positive control. B. Rhamnolipid Assay Protocol. Rhamnolipid was quantified following a reported protocol (Koch et al., 1991) with modifications. Assay cultures were prepared and grown in an identical manner to the pyocyanin assay above. Aliquots of the final culture supernatant (1 mL) were transferred to 1 dram glass vials and extracted twice with 1 mL diethyl ether. The pooled organic fractions were evaporated to dryness, and the resulting residue reconstituted in 200 μL de-ionized water. […] After briefly cooling to room temperature, 200 μL of the resulting yellow to yellow-orange solution was transferred to a clear 96-well microtiter plate, and the absorbance at 421 nm measured. Media background absorbance (measured from a “no bacteria” control) was subtracted, the resulting values growth normalized by dividing by the final OD600, and the data plotted relative to a DMSO-treated positive control. […] The amount of elastase B in P. aeruginosa culture supernatants was measured following a reported protocol (Geske et al., 2007) with modifications. […] To quantify elastase B activity, the undigested elastin was pelleted by centrifugation of the assay plate at 1,500 g for 10 min, after which 100 μL of the supernatant was transferred to a new, clear 96-well plate, and the absorbance at 490 nm measured. Media background absorbance (measured from a “no bacteria” control) was subtracted, the resulting values growth normalized by dividing by the final OD600, and the data plotted relative to a DMSO-treated positive control.

[4] = test system: P. aeruginosa (PAO1); assay: Rhamnolipid assay; format: cell-based, Pseudomonas aeruginosa; settings: MOPS Glutamate and Glucose media, complete or iron/phosphate depleted, 17 h, 100 μM (compounds 1, 2, 3), 25 μM (compound 4), relative to DMSO
Description: as §1

[5] = biological target: QscR (Pseudomonas aeruginosa, UniProt G3XD77); format: cell-based; design: expressed in transfected cells; host or cells: E. coli JLD271; settings: compounds at 100 mm against 15 nm OdDHL; E. coli reporter strain JLD271/pJN105Q/pSC11-Q; untreated culture = 100%; error ±10%
Text: Construction of pSC11-Q: A 348 bp fragment spanning the upstream region of PA1897 (¢304 to +43 relative to the PA1897 translationalstart codon) was amplified from plasmid pJL101*by using primers 5′-GAATAT GGATCC TCTCTC CGCAGA TACCTG-3′ (BamHI site underlined) SEQ ID NO:5 and 5′-GCTATT GAATTC TGAAGA TGAATA GCGCCAC-3′ (EcoRI site underlined) SEQ ID NO:6. The PCR-generated fragment was digested with EcoRI and BamHI and subsequently ligated into EcoRI/BamHI-digested pPROBE-KT to generate pPROBE-KQ2. […] CGCC-3′ (BamHI site underlined) SEQ ID NO:8. The PCR-generated fragment was digested with SalI and BamHI and subsequently ligated into SalI/BamHI-digested pSC11 to generate pSC11-Q.
E. coli reporter gene assays: Primary assays for RhlR, LasR, and QscR activity in E. coli JLD271 reporter (beta-galactosidase) strains were performed as reported by Welsh et al. 2015, with the following modifications:
For all primary and dose-response antagonism assays, the concentration of native ligand utilized was approximately equal to its EC50 value in each bacterial reporter strain. For RhlR, LasR, and QscR primary antagonism assays, synthetic ligand (100 mm) was screened against BHL (10 mm), OdDHL (2 nm), and OdDHL (15 nm), respectively. For RhlR, LasR, and QscR primary agonism assays, synthetic compound (100 mm) was screened alongside and compared to the natural ligand (900 mm BHL or 100 mm OdDHL) for the receptor. As part of the beta-galactosidase assay protocol, plates to which CPRG substrate had been added were incubated at either 25° C. (LasR assay) or 30° C. (RhlR and QscR assays) until positive control wells developed a deep red color (10 min for LasR, 30 min for RhlR, and 60 min for QscR). Dose-response reporter gene assays were performed according to these protocols by using varying concentrations of compound.

[6] = biological target: T1, LasR (Pseudomonas aeruginosa, UniProt P25084); assay: E. coli reporter gene primary antagonism assay, LasR; format: cell-based; settings: compounds at 100 mm against 2 nm OdDHL; E. coli beta-galactosidase reporter strain JLD271/pJN105L/pSC11; untreated culture = 100%; negative values indicate receptor agonism; error ±10%
T1 construct: expressed in transfected cells; host or cells: E. coli JLD271
Description: Percent agonism of a given non-native inducer in a given bacterium and QS system receptor is measured with resepct to the maximum level of agonism (activation) by the native ligand of that receptor in the given bacterium. Percent antagonism is measured in competitive assays. The QS system of interest is activated to 100% with added or endogenous native ligand and the % antagonism of the non-native inducer is assessed with respect to 100% activation by the native inducer. The native ligand which induces LasR is OdDHL, which induces RhlR is BHL and which induces PqsR is PQS. As described herein and in cited references, assays for assessment of % agonism or % atangonism may be performed in E. coli systems (heterologous) or in the bacterium of interest, e.g., Pseudomonas. Dependent upon the assay system employed native ligand may be endogenously present or it may be exogenously supplied to the assay system. […] In antagonism assays using the native strains with functional QS systems, e.g., those of P. aeruginosa, endogenous native ligand is made in the system, so no native ligand is added. In native strains having one or more non-functional QS systems (mutant strains), e.g., P. aeruginosa mutants with non-functional QS systems, native ligand is added at about 10-100× the EC50 of the native ligand. In the agonism assay, native ligand is added as a control. Details of the assays are provided herein in Example 9 and in references cited in Example 9.

Chain of QscR (G3XD77 entry or part of it): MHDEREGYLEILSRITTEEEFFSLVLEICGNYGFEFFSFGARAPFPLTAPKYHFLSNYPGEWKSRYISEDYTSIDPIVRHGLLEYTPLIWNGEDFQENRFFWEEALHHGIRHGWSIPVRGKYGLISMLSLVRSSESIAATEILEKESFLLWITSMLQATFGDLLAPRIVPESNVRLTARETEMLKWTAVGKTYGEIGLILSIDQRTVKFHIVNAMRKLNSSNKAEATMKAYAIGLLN
T1 sequence (P25084 whole entry): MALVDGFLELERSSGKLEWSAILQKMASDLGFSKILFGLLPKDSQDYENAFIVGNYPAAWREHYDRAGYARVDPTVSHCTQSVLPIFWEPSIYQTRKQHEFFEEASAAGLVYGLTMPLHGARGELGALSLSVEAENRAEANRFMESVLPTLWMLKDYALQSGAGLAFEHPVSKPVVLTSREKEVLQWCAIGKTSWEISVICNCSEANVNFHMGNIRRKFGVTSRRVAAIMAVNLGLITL

| Structure (SMILES) | pyocyanin production, single compound screens [1] | pyocyanin production over time, low phosphate medium ([1]; MOPS Glutamate with phosphate diluted 10-fold, 100 microM compound 1) | pyocyanin production over time, complete medium ([1]; complete MOPS Glutamate, 100 microM compound 1) | effect on cell growth, compound 1 [2] | elastase B production, single compound screens [3] | rhamnolipid production, single compound screens [4] | pyocyanin production in SCFM2, single compound ([1]; SCFM2, 17 h, 100 μM compound 2 alone) | Inhibition [%] QsCR [5] | Inhibition [%] LasR [6] | elastase B production in MOPS Glutamate, single compound screen ([3]; MOPS Glutamate, 25 μM compound 4) |
| --- | --- | --- | --- | --- | --- | --- | --- | --- | --- | --- |
| CCCCCCCCCC(=O)CC(=O)Nc1ccccc1 [compound 1] | strong pyocyanin inhibition, unless phosphate concentrations were low | does not attenuate pyocyanin production; also recorded: little to no effect | eliminated pyocyanin synthesis | no effect on cell growth | little to no effect | little to no effect |  |  |  |  |
| O=C(COc1ccc(I)cc1)N[C@H]1CCOC1=O [compound 2] | strong pyocyanin inhibition, unless phosphate concentrations were low |  |  |  | little to no effect | little to no effect | did not attenuate pyocyanin | 18% | −9% |  |
| O=C(CSc1nc2cc([N+](=O)[O-])ccc2[nH]1)Nc1ccc(Oc2ccccc2)cc1 [compound 4, 2-[(6-nitro-1H-benzimidazol-2-yl)-sulfanyl]-N-(4-phenoxyphenyl)acetamide] | eliminated pyocyanin synthesis under all conditions tested, even low iron and phosphate |  |  |  |  | failed to inhibit rhamnolipid production; also recorded: cannot inhibit rhamnolipid |  |  |  | strong attenuation of elastase B production |
